Measurements as given in patent US20240270762A1, “PENICILLIN-BINDING PROTEIN INHIBITORS” (priority 2021, published 2024).
pEC50: −log10 of the molar value. ≈ marks a conversion by molar mass, not a printed value.

Legend:
[1] = target: T1, PBP3 from Escherichia coli (K-12) (Escherichia coli, UniProt P0AD68); test: Bocillin-FL fluorescence polarization competition binding, E. coli PBP3
T1 construct: made in house
How it was run: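 Purified PBP was preincubated with inhibitor (E. coli PBP3 1.5 μM, 30 min; P. aeruginosa PBP3 0.75 μM, A. baumannii PBP3 0.2 μM and PBP1a 1 μM, 15 min), then Bocillin-FL (0.1 μM; 0.05 μM for PBP1a) added and FP read up to 60 min. EC50 = 50% loss of bound probe.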

[2] = test system: P. aeruginosa ATCC 27853; test: microbe, parasite or virus in culture; assay type: cell-based; conditions: Pseudomonas aeruginosa, ATCC27853, read-out: Minimum inhibitory concentration, P. aeruginosa ATCC 27853
[3] = test system: P. aeruginosa (ΔmexAB-oprM); test: Broth microdilution MIC in iron-depleted CAMHB (IDM); assay type: cell-based; conditions: Pseudomonas aeruginosa; iron-depleted CAMHB (IDM); […]; read-out: Minimum inhibitory concentration, P. aeruginosa ΔmexAB-oprM
[4] = test system: P. aeruginosa CDC-0054; test: microbe, parasite or virus in culture; assay type: cell-based; conditions: Pseudomonas aeruginosa, CDC0054, read-out: Minimum inhibitory concentration, P. aeruginosa CDC-0054
[5] = test system: P. aeruginosa CDC-0090; test: microbe, parasite or virus in culture; assay type: cell-based; conditions: Pseudomonas aeruginosa, CDC0090, read-out: Minimum inhibitory concentration, P. aeruginosa CDC-0090
[6] = test system: A. baumannii 1258916; test: microbe, parasite or virus in culture; assay type: cell-based, Acinetobacter baumannii; conditions: Acinetobacter baumannii, 1258916, read-out: MIC, A. baumannii 1258916
[7] = test system: A. baumannii CDC-0036; test: microbe, parasite or virus in culture; assay type: cell-based; conditions: Acinetobacter baumannii, CDC0036, read-out: MIC, A. baumannii CDC-0036
[8] = test system: A. baumannii CDC-0083; test: microbe, parasite or virus in culture; assay type: cell-based; conditions: Acinetobacter baumannii, CDC0083, read-out: MIC, A. baumannii CDC-0083
[9] = test system: B. thailandensis ATCC 700388; test: microbe, parasite or virus in culture; assay type: cell-based; conditions: Burkholderia thailandensis, ATCC700388, read-out: Minimum inhibitory concentration (MIC), B. thailandensis ATCC 700388
[10] = test system: P. aeruginosa CDC-0110; test: microbe, parasite or virus in culture; assay type: cell-based; conditions: Pseudomonas aeruginosa, CDC0110, read-out: Minimum inhibitory concentration, P. aeruginosa CDC-0110

T1 sequence (P0AD68 1-577): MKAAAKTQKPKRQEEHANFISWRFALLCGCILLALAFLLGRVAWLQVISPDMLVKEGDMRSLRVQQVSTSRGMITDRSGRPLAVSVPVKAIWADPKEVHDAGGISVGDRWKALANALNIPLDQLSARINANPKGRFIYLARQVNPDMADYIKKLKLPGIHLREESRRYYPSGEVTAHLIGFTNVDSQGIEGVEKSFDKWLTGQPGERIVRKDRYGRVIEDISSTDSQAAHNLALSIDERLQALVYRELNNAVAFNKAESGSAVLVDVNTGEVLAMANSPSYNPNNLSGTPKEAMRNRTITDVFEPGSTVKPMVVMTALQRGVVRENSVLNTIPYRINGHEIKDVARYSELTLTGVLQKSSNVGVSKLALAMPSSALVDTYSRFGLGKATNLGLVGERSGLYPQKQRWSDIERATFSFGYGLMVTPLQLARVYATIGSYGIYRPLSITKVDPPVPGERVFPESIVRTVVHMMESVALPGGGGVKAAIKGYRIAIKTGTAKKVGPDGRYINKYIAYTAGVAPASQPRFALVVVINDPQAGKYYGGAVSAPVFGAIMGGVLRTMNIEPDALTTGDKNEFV

| SMILES | pEC50 [1] | MIC [2] | MIC [3] | MIC [4] | MIC [5] | MIC [6] | MIC [7] | MIC [8] | MIC [9] | MIC [10] |
| --- | --- | --- | --- | --- | --- | --- | --- | --- | --- | --- |
| O=C(NCCCN1CCN(C(=O)N[C@@H](C(=O)N[C@H]2Cc3ccc(F)c(C(=O)O)c3OB2O)c2cc(F)c(O)c(O)c2Cl)C(=O)C1=O)c1ccncc1 [Example 294, (R)-3-((R)-2-(2-chloro-5-fluoro-3,4-dihydroxyphenyl)-2-(4-(3-(isonicotinamido)propyl)-2,3-dioxopiperazine-1-carboxamido)acetamido)-7-fluoro-2-hydroxy-3,4-dihydro-2H-benzo[e][1,2]oxaborinine-8-carboxylic acid] | > 5.00 | < 1 µg/mL | < 1 µg/mL | < 1 µg/mL | < 1 µg/mL | < 1 µg/mL | < 1 µg/mL | < 1 µg/mL | < 1 µg/mL | < 1 µg/mL |
| O=C(NCCCN1CCN(C(=O)NC(C(=O)N[C@H]2Cc3ccc(F)c(C(=O)O)c3OB2O)c2cc(F)c(O)c(O)c2Cl)C(=O)C1=O)c1ccncc1Cl (stereo partly drawn) [Example 295, (3R)-3-(2-(2-chloro-5-fluoro-3,4-dihydroxyphenyl)-2-(4-(3-(3-chloroisonicotinamido)propyl)-2,3-dioxopiperazine-1-carboxamido)acetamido)-7-fluoro-2-hydroxy-3,4-dihydro-2H-benzo[e][1,2]oxaborinine-8-carboxylic acid] | > 5.00 | 2 to 4 µg/mL (≈ 2.57 to 5.13 µM) | < 1 µg/mL | 2 to 4 µg/mL (≈ 2.57 to 5.13 µM) | < 1 µg/mL | < 1 µg/mL | 2 to 4 µg/mL (≈ 2.57 to 5.13 µM) | < 1 µg/mL | 2 to 4 µg/mL (≈ 2.57 to 5.13 µM) | < 1 µg/mL |
| O=C(NCCCN1CCN(C(=O)N[C@@H](C(=O)N[C@H]2Cc3ccc(F)c(C(=O)O)c3OB2O)c2cc(F)c(O)c(O)c2Cl)C(=O)C1=O)c1ccncc1O [Example 296, (R)-3-((R)-2-(2-chloro-5-fluoro-3,4-dihydroxyphenyl)-2-(4-(3-(3-hydroxyisonicotinamido)propyl)-2,3-dioxopiperazine-1-carboxamido)acetamido)-7-fluoro-2-hydroxy-3,4-dihydro-2H-benzo[e][1,2]oxaborinine-8-carboxylic acid] | > 5.00 | < 1 µg/mL | < 1 µg/mL | < 1 µg/mL | < 1 µg/mL | < 1 µg/mL | < 1 µg/mL | < 1 µg/mL | 2 to 4 µg/mL (≈ 2.63 to 5.26 µM) | < 1 µg/mL |
| Cc1cnccc1C(=O)NCCCN1CCN(C(=O)NC(C(=O)N[C@H]2Cc3ccc(F)c(C(=O)O)c3OB2O)c2cc(F)c(O)c(O)c2Cl)C(=O)C1=O (stereo partly drawn) [Example 297, (3R)-3-(2-(2-chloro-5-fluoro-3,4-dihydroxyphenyl)-2-(4-(3-(3-methylisonicotinamido)propyl)-2,3-dioxopiperazine-1-carboxamido)acetamido)-7-fluoro-2-hydroxy-3,4-dihydro-2H-benzo[e][1,2]oxaborinine-8-carboxylic acid] | > 5.00 | < 1 µg/mL | < 1 µg/mL | 2 to 4 µg/mL (≈ 2.64 to 5.27 µM) | < 1 µg/mL | < 1 µg/mL | 2 to 4 µg/mL (≈ 2.64 to 5.27 µM) | < 1 µg/mL | 2 to 4 µg/mL (≈ 2.64 to 5.27 µM) | < 1 µg/mL |
| Cc1cc(C(=O)NCCCN2CCN(C(=O)N[C@@H](C(=O)N[C@H]3Cc4ccc(F)c(C(=O)O)c4OB3O)c3cc(F)c(O)c(O)c3Cl)C(=O)C2=O)ccn1 [Example 298, (R)-3-((R)-2-(2-chloro-5-fluoro-3,4-dihydroxyphenyl)-2-(4-(3-(2-methylisonicotinamido)propyl)-2,3-dioxopiperazine-1-carboxamido)acetamido)-7-fluoro-2-hydroxy-3,4-dihydro-2H-benzo[e][1,2]oxaborinine-8-carboxylic acid] | > 5.00 | 2 to 4 µg/mL (≈ 2.64 to 5.27 µM) | < 1 µg/mL | < 1 µg/mL | < 1 µg/mL | < 1 µg/mL | < 1 µg/mL | < 1 µg/mL | < 1 µg/mL | < 1 µg/mL |
